Results from patent US6242429A, “Arabinosyladenine derivatives” (priority 1998, dated 2001).
“Also recorded” adds a separate entry of the source.

Key:
adenosinedeaminase (ADA) [1] = settings: background statement; cited from earlier work
[2] = tested on: shingles herpes virus (VZV, Kawaguchi strain); assay: Antiviral activity to shingles herpes virus, plaque numbers on HEL cells; type: cell-based, varicella-zoster virus; settings: incubated one week, FIG. 1 and FIG. 2
Experimental: As a test for efficacy of antiviral activity, antiviral activity to shingles herpes virus was measured. Cell-free aricella-zoster virus (VZV) (Kawaguchi strain) was diluted and the resulting solution was layered on HEL cells of a 100% confluent. The layered product was placed in a CO2 incubator of 37° C., shaken every 15 minutes and infected for one hour. The virus solution was removed by suction, then DMEM containing 5% of FCS and a compound of the present invention, a control compound or Ara-A (positive control) was added thereto and the mixture was incubated for one week. The incubated mixture was fixed by formalin, dyed with Crystal Violet and numbers of plaques were measured. The inhibiting rate to shingles virus was determined from the plaque numbers of the control.

adenosinedeaminase (ADA) [3] = assay: Stability to ADA, enzymatic reaction followed by decrease in UV absorption at 265 nm; type: in vitro ADME; settings: 0.1 mM compound, 75 mM phosphate buffer pH 7.5, 25° C., UV 265 nm
Experimental: An enzymatic reaction was carried out to test stability of the compounds to ADA. Thus, 200 μL (final concentration: 0.1 mM) of a 1 mM solution of a compound of the present invention, a control compound or Ara-A (control), 1.5 mL of a 0.1 M phosphate buffer (pH 7.5; final concentration: 75 mM) and 300 μL of a 200 units/mL enzyme solution (final concentration: […]) were placed in a UV cell and the decrease in ultraviolet absorption at 265 nm with a lapse of time was measured by an ultraviolet absorption meter. The enzymatic reaction was carried out at 25° C. As the enzymatic reaction proceeded, an ultraviolet absorption at 265 nm decreased and said rate of decrease in ultraviolet absorption was expressed as a relative enzymatic reaction rate.

SMILES	metabolism by ADA in the blood stream (adenosinedeaminase (ADA) [1])	antiviral activity to shingles virus (inhibiting rate from plaque numbers) [2]	resistance (stability) to metabolism by ADA, relative enzymatic reaction rate (adenosinedeaminase (ADA) [3])
Nc1ncnc2c1ncn2[C@@H]1O[C@H](CO)[C@@H](O)[C@@H]1O [Ara-A, Arabinosyladenine]	quickly metabolized by adenosinedeaminase (ADA) in the blood stream to hypoxanthine arabinoside		
Cc1nc(N)c2ncn([C@@H]3O[C@H](CO)[C@@H](O)[C@@H]3O)c2n1 [control compound A, 9-(β-D-arabinofuranosyl)-2-methyladenine]		no strong antiviral action is obtained; also recorded: a sufficient antiviral action is not achieved	not satisfactory in terms of resistance to ADA; also recorded: did not show a favorable resistance to ADA
CCc1nc(N)c2ncn([C@@H]3O[C@H](CO)[C@@H](O)[C@@H]3O)c2n1 [control compound B, 9-(β-D-arabinofuranosyl)-2-ethyladenine]		no strong antiviral action is obtained; also recorded: a sufficient antiviral action is not achieved	not satisfactory in terms of resistance to ADA; also recorded: did not show a favorable resistance to ADA
